Laboratory results published in patent US8497269B2, “Phthalazine compounds as p38 map kinase modulators and methods of use thereof” (Amgen Inc., priority 2008, dated 2013).

Key:
human p38α = human p38α (Homo sapiens, UniProt Q16539); test: Purified and activated recombinant human p38α assay (HTRF); type: biochemical; conditions: 1 nM p38α, 50 μM ATP, 100 nM GST-ATF2-Avitag, 1 hour at RT, read-out: p38a IC50 IC50
Procedure: Purified and Activated Recombinant Human p38α Assay
Kinase Reaction Buffer: Kinase reaction buffer for p38α HTRF assays consists of 50 mM Tris-pH 7.5, 5 mM MgCl2, 0.1 mg/mL BSA, 100 μM Na3VO4 and 0.5 mM DTT.
HTRF Detection Buffer: HTRF detection buffer contains 100 mM HEPES-pH 7.5, 100 mM NaCl, 0.1% BSA, 0.05% Tween-20, and 10 mM EDTA.
Serial Dilution of Compounds: Compounds were dissolved in 100% DMSO and serially diluted (3 fold, 10 point) in a polypropylene 96-well microtiter plate (drug plate). The final starting concentration of compounds in the p38α enzymatic assays was 1 μM. Columns 6 and 12 (HI controls and LO controls respectively) in the drug plate were reserved as controls and contained only DMSO. Kinase Reaction: The p38α kinase reactions were carried out in a polypropylene 96-well black round bottom assay plate in total volume of 30 μL kinase reaction buffer. Appropriate concentration of purified and activated enzyme (recombinant human) was mixed with indicated concentration of ATP and 100 nM GST-ATF2-Avitag, in the presence or absence (HI control) of Compound. See table below for actual concentrations. In the absence of substrate, the background was measured as LO control. The reaction was allowed to incubate for 1 hour at RT. Assay Reagent Concentrations: The final reagent concentrations were 1 nM p38α and 50 μM ATP. […] After 60 minutes incubation at room temperature, the assay plate was read in a Discovery Plate Reader. The wells were excited with coherent 320 nm light and the ratio of delayed ([…] post excitation) emissions at […] (native europium fluorescence) and 665 nm (europium fluorescence transferred to allophycocyanin—an index of substrate phosphorylation) was determined (Park et al, 1999). Data Analysis: The proportion of substrate phosphorylated in the kinase reaction in the presence of compound compared with that phosphorylated in the presence of DMSO vehicle alone (HI control) was calculated using the formula: % control (POC)=(compound−average LO)/(average HI−average LO)*100. Data (consisting of POC and inhibitor concentration in μM) was fitted to a 4-parameter equation (y=A+((B−A)/(1+((x/C)^D))), where A is the minimum y (POC) value, B is the maximum y (POC), C is the x (compound concentration) at the point of inflection and D is the slope factor, using a Levenburg-Marquardt non-linear regression algorithm.
The inhibition constant (Ki) of the inhibitor was estimated from the IC50 (compound concentration at the point of inflection C) using the Cheng-Prussof equation: Ki=IC50/(1+S/Km), where S is the ATP substrate concentration, and Km is the Michaelis constant for ATP as determined experimentally. All results were expressed as the mean±the standard error of the mean. Data acquisition and non-linear regression algorithms were performed using Activity Base v5.2 and XL-fit software v4.1 respectively. All data was archived using Activity Base v5.2 software.

[1] = test system: TNF-α induced IL-8 production in human whole blood; test: Inhibition of TNF-α induced IL-8 in 50% human whole blood; type: cell-based; conditions: 1 nM TNF-α, secreted IL-8, 16-18 hours, read-out: WB TNF/IL8 IC50
Procedure: Inhibition of TNF-α Induced IL-8 in 50% Human Whole Blood
Test compounds were evaluated in vitro for the ability to inhibit the production of secreted IL-8 by whole blood activated with TNF-α. Fresh human whole blood was obtained from healthy, non-medicated volunteers in sodium heparin tubes.
Compound Dilution—Assay Procedure
Test compounds are serially diluted 1:3 in DMSO and then diluted 1:250 into R10 (RPMI 1640, 10% human serum AB, 1× pen/strep/glutamine) to the 4× working concentration to be used in the assay. 100 ul heparinized whole blood is plated into wells of 96 well flat bottom plates. 50 ul of either 4× compound or DMSO control (Final DMSO concentration is 0.1%) are added to the appropriate wells. Plates are incubated for 1 hour at 37 degrees Celsius. 50 ul of 4×TNF-α (4 nM TNF-α, for a final concentration of 1 nM) or control (media alone) is added to the appropriate wells (Total volume=200 ul). Plates are incubated overnight (16-18 hours). 100 ul of supernatant is collected and stored in 96-well round bottom polypropylene plates at −80 degrees Celsius or assayed immediately for IL-8.
Cytokines are measured on antibody (Ab) sandwich ECL based 96-well detection plates. 20 ul of supernatant are added to plate and plate is sealed and shaken at RT for 1 hour. 130 ul of detection Ab cocktail is added and plates are sealed and shaken for 1 hour in the dark at RT. Plates are read on MSD Sector HTS instrument. Data are analyzed and IC50 values generated using Activity Base and Xl-fit programs.

human p38α, sequence (Q16539 whole entry): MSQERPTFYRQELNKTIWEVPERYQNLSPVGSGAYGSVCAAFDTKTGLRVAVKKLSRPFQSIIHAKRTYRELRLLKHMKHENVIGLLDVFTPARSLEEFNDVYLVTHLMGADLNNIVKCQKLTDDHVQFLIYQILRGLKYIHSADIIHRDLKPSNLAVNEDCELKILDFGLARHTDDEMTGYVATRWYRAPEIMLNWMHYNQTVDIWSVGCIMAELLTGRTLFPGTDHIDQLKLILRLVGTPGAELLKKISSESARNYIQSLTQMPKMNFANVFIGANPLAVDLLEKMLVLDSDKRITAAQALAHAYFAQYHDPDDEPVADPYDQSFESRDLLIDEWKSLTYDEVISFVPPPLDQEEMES

IC50 (human p38α) [nM]	IC50 [1] [nM]	Compound
0.8	10.9	Cc1cc(F)ccc1-c1nncc2cc(Nc3ccc(F)cn3)ccc12 [Example 22, 1-(4-fluoro-2-methylphenyl)-N-(5-fluoro-2-pyridinyl)-6-phthalazinamine]
0.7	2.7	Cc1cc(F)ccc1-c1nncc2cc(Nc3ccccc3)ccc12 [Example 27, 1-(4-fluoro-2-methylphenyl)-N-phenyl-6-phthalazinamine]
8	16	c1ccc(Nc2ccc3c(N4CCOCC4)nncc3c2)cc1 [Example 34, 1-(4-morpholinyl)-N-phenyl-6-phthalazinamine]

More lines, now with the values behind:

Compound	IC50 (human p38α) [nM]	IC50 [1] [nM]
Cc1cc(F)ccc1-c1nncc2cc(Nc3ccc(F)cc3)ccc12 [Example 11, 1-(4-fluoro-2-methylphenyl)-N-(4-fluorophenyl)-6-phthalazinamine]	0.4	1.5
Cc1cc(S(C)(=O)=O)c(F)cc1-c1nncc2cc(Nc3ccc(F)cc3F)ccc12 [Example 12, N-(2,4-difluorophenyl)-1-(5-fluoro-2-methyl-4-(methylsulfonyl)phenyl)-6-phthalazinamine]	0.5	0.8
N-(4-fluorophenyl)-1-((2,2,2-trifluoro-1-methylethyl)oxy)-6-phthalazinamine [Example 23]	9.1	137
Cc1cc(S(C)(=O)=O)ccc1-c1nncc2cc(Nc3ccc(F)cc3)ccc12 [Example 2, N-(4-Fluorophenyl)-1-(2-methyl-4-(methylsulfonyl)phenyl)phthalazin-6-amine]	0.3	0.8
